# Results taken from publication PMC12471299, “Secondary Metabolites of the Marine Sponge-Derived Fungus Aspergillus subramanianii 1901NT-1.40.2 and Their Antimicrobial and Anticancer Activities” (Marine Drugs, 2025).
# “And” between values parts separate entries of the source, which are not always exact repeats. Identical values can stand only once. Like-named read-outs stand apart in the source and are kept apart here.
# Experiments:
# [1] = test system: Staphylococcus aureus ATCC 21027; assay: Biofilm formation assay (MTT); assay type: cell-based; conditions: S. aureus, 18 h
# Method in brief: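 MIC50 values derive from percent-of-control data: 50% reduction of growth (OD620, 18 h) or of biofilm (MTT, OD570, 18 h). Test compound ≤100 µM; 1% DMSO in PBS served as negative control.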
# A549 cells = test system: A549 cells; parameters: method as in PMID 29642369; conditions: A549, at 100 µM; cited from earlier work
# A375 cells = test system: A375 cells; parameters: method as in PMID 29642369; conditions: A375, at 100 µM; cited from earlier work
# MCF-7 cells = assay: Cell cycle investigation (propidium iodide, flow cytometry); assay type: cell-based, human
# Description: After incubation, the cells were trypsinized, harvested, washed with PBS, and fixed with ice-cold 70% ethanol in a dropwise manner prior to storage at −20 °C overnight. The cells were then washed with PBS, incubated with 200 μg/mL RNAse (PanReac, AppliChem, Darmstadt, Germany) and 20 μg/mL of propidium iodide (Sigma-Aldrich, St. Louis, MO, USA) for 30 min at 37 °C, and DNA content was analyzed using a NovoCyte flow cytometer (Agilent, Austin, TX, USA). The proportion of cells in each cell cycle phase was expressed as a percentage.
# [2] = Competitive assay with 4-hydroxytamoxifen (MTT viability); assay type: cell-based; conditions: human
# Description: Since estrogen-dependent breast cancer MCF-7 cells were proposed to be more sensitive to compound 8, the estrogen receptor (ER) dependence of petromurin C (8) cytotoxicity to estrogen-dependent MCF-7 cells was investigated using 4-hydroxytamoxifen (4-OHT) as an ERs antagonist. MCF-7 cells were pretreated with 4-OHT at a nontoxic concentration of 0.1 µM for 1 h, and 8 at 10 µM was added for 48 h. The antagonist of estrogenic receptors, 4-hydroxytamoxifen (Lumiprobe, Moscow, Russia), was dissolved in DMSO at a concentration of 10 mM and stored with protection from light. The probe was then added to the cells at a final concentration of 1 µM. The investigated compounds were added to the cells after 1 h. Then the viability of MCF-7 cells was measured after 48 h using MTT assay (Section 4.8.3).
"Biofilm formation, MIC50 [1] [µM]",Compound,effect on cells (A549 cells),effect on cells (A375 cells),"Cell Disturbance, G1 Phase (MCF-7 cells; 1 h, 5 µM) [%]","Cell Disturbance, G2/M Phase (MCF-7 cells; 1 h, 5 µM) [%]","Cell Disturbance, S Phase (MCF-7 cells; 1 h, 5 µM) [%]","Cell Disturbance, G1 Phase (MCF-7 cells; 1 h, 10 µM) [%]","Cell Disturbance, G2/M Phase (MCF-7 cells; 1 h, 10 µM)","Cell Disturbance, S Phase (MCF-7 cells; 1 h, 10 µM)","Cell Disturbance, G1 Phase (MCF-7 cells; 3 h, 5 µM)","Cell Disturbance, G2/M Phase (MCF-7 cells; 3 h, 5 µM)","Cell Disturbance, S Phase (MCF-7 cells; 3 h, 5 µM)","Cell Disturbance, G1 Phase (MCF-7 cells; 3 h, 10 µM) [%]","Cell Disturbance, G2/M Phase (MCF-7 cells; 3 h, 10 µM)","Cell Disturbance, S Phase (MCF-7 cells; 3 h, 10 µM)","viability at 48 h, 10 µM ([2]; MCF-7 cells pretreated with 4-hydroxytamoxifen, 4-OHT 0.1 µM for 1 h, then 8 at 10 µM, read-out: viability of 4-OHT-pretreated MCF-7 cells) [%]","viability at 48 h, 10 µM ([2]; MCF-7 cells, 8 at 10 µM, no 4-OHT, read-out: viability of MCF-7 cells) [%]"
7.98 ± 0.57,"COC1=C(c2c[nH]c3ccccc23)C(=O)C(CC=C(C)C)=C(c2c[nH]c3ccccc23)C1=O [Compound 6, kumbicin D]",weak effects,weak effects,,,,,,,,,,,,,,
,"COc1c(OC)c(-c2c[nH]c3ccc(O)cc23)c(OC)c(OC)c1-c1c[nH]c2ccccc12 [Compound 8, petromurin C]",,,22.69 ± 0.42,29.91 ± 1.95,45.52 ± 1.05,21.37 ± 2.18,25.9% and 25.96 ± 0.62 %,53.1% and 53.15 ± 1.53 %,26.2% and 26.20 ± 1.17 %,17.2% and 17.20 ± 1.23 %,56.6% and 56.60 ± 1.25 %,33.82 ± 0.98,14.9% and 14.95 ± 1.08 %,51.8% and 51.79 ± 0.86 %,84.4 ± 1.1,76.1 ± 1.6
